Laboratory results reported in article PMC9782626, “Copper(II) Complexes of 5–Fluoro–Salicylaldehyde: Synthesis, Characterization, Antioxidant Properties, Interaction with DNA and Serum Albumins” (Molecules, 2022).

Assays:
[1] = ABTS radical cation scavenging assay; assay type: biochemical; conditions: compound 0.1 mM, 1 min
From the text: For the above reasons, the antioxidant ability of 5–F–saloH and Cu(II) complexes 1–5 has been evaluated via their scavenging activity towards DPPH and ABTS radicals, as well as the ability to reduce H2O2, and in comparison with that of well-known antioxidant agents such as nordihydroguaiaretic acid (NDGA), butylated hydroxytoluene (ΒHΤ), 6–hydroxy–2,5,7,8–tetramethylchromane–2–carboxylic acid (trolox) and L–ascorbic acid (these are the most commonly used standard reference antioxidant agents). The DPPH-radical assay was developed in the 1950s and this method has been used to assess the antioxidant capacity of several metal complexes. The DPPH–scavenging ability of compounds has often been related to their ability to prevent ageing, cancer and inflammation. The ability of a compound to scavenge the cationic ABTS radicals (ABTS^+●) has been considered a measure of its total antioxidant activity. Further, hydrogen peroxide has the ability to penetrate biological membranes and, although it is not very reactive itself, it can sometimes be toxic since it may give rise to hydroxyl radicals in cells. For this reason, the removal of H2O2 is very important for the protection of living systems. When a compound is incubated with H2O2 using a peroxidase assay system, the loss of H2O2 can be measured.
S1 Antioxidant activity assay
The antioxidant activity of the compounds was evaluated via their ability to scavenge in vitro free radicals such as DPPH and ABTS and to reduce H 2O2. All the experiments were carried out at least in triplicate and the standard deviation of absorbance was less than 10% of the mean. […]
S1.2 Assay of radical cation ABTS-scavengin g activity
The ABTS assay was performed to determine the activity of the compounds to scavenge the radical cation ABTS. Initially, a water solution of ABTS was prepared (2 mM). ABTS radical cation (ABTS+·) was produced by the reaction of ABTS stock solution with potassium persulfate (0.17 mM) and the mixture was stored in the dark at room temperature for 12-16 h before its use. The ABTS was oxidized incompletely because the stoichiometric reaction ratio of ABTS and potassium persulfate is 1:0.5. The absorbance became maximal and stable only after more than 6 h of reaction although the oxidation of the ABTS started immediately. The radical was stable in this form for more than 2 days when allowed to stand in the dark at room temperature. Afterwards, the ABTS+· solution was diluted in ethanol to an absorbance of 0.70 at 734 nm and 10 μL of diluted compounds or standards (0.1 mM) in DMSO were added. The absorbance was recorded out exactly 1 min after init ial m ix in g [S 1]. The ABTS radical scavenging act ivit y was expressed as the percentage inhibition of the absorbance of the initial ABTS solution (ABTS%). Trolox was used as an appropriate standard. […]

[2] = molecular target: T1, human serum albumin (HSA) (Homo sapiens, UniProt P02768); experiment: Albumin binding by tryptophan fluorescence quenching (HSA); conditions: for ΔΙ/Ιο, quenching of the HSA fluorescence: HSA 3 μM, λex 295 nm; for % relative HSA fluorescence emission intensity I/Io remaining (% of initial): final value, pH 7.0; for HSA-binding constant K: Scatchard equation; for HSA-quenching constant kq: from Stern–Volmer plots, τo 10^-8 s
T1 construct: purchased Sigma–Aldrich Co
From the text: Serum albumins are among the important proteins of the circulatory system. Their main role is to carry drugs and other bioactive small molecules through the bloodstream. BSA and HSA are structurally homologous albumins, having two and one tryptophan residues, respectively. The tryptophan residues of both albumins are responsible for the intense fluorescence emission band with λem,max = 342 nm for BSA and 350 nm for HSA, respectively, when their solutions are excited at 295 nm. […] The inner-filter effect was calculated with Equation (S4) and it was found too low to affect the measurements.
When the compounds were added to a solution of the albumins (3 μM), a significant quenching of the BSA (λem = 342 nm) and HSA (λem = 350 nm) fluorescence emission bands was observed (Figure 7) which was more pronounced in the case of BSA (Table 7 and Figure 8). […] The observed quenching may be ascribed to changes in the tryptophan environment of SA resulting from possible denaturation of their secondary structure, induced by the binding of the complexes to the albumins. […]
Io =1+ k τ [Q] =1+ K [Q] […]
S3Albumin -binding studies
In order to investigate if the compounds can bind to carrier proteins like serum albumins, we carried out albumin binding study by tryptophan fluorescence quenching experiments using bo vine serum albumin (BSA, 3 μM) in buffer (containing 15 mM trisodium citrate and 150 mM NaCl at pH 7.0). The quenching of the emission intensity of tryptophan residues of BSA at 343 nm was monitored using the co mpounds as que ncher s with increasing concentration [S4]. The fluo rescence emission spectra of the compounds were also recorded with λex = 295 nm. No fluorescence emission band was recorded and thus it was not related to the compounds . The influence of the inner-filter effect [S6] on the measurements wa s evaluated by equation S4.
Where Icorr = corrected intensity, Imeas = the measured intensity, c = the concentration of the quencher, d = the cuvette (1 cm), ε (λexc ) and ε(λe m) = the ε of the quencher at the excitation and the emission wavelength, respectively, as calculated from the UV-vis spectra of the […]
The Stern-Volmer and Scatchard graphs are used to study the interaction of the compounds with serum albumins. According to Stern-Volmer quenching equation (eq.
S2), where Io = the initial tryptophan fluorescence intensity of SA, I = the tryptophan fluorescence intensity of SA after the addition of the quencher, kq = the quenching […]
constant, KSV = the Stern-Volmer constant, τo = the average lifetime of SA without the quencher, and, tak ing as fluorescence lifet ime (τo) of tryptophan in SA at around 10-8 s [S 4] , KSV (in M -1) can be obtained by the slope of the diagram Io/I versus [compound] (Stern-Volmer plots), and subsequently the quenching (kq, in M -1s-1) may be calculated from eq.
From the Scatchard equation (eq. S5): […]
where n is the number of binding sites per albumin and K is the SA-binding constant (K, in M -1) is calculated from the slope in plots (ΔI/Io)/[complex] versus ΔI/Io and n is given by the ratio of y intercept to the slope [S7].
S1 Kontogiorgis, C.; Hadjipavlou–Lit ina, D. Biological Evaluat ion of Several Coumarin Derivatives Designed as Possible Anti–inflammatory/Antioxidant Agents. J. Enz. Inhib.
S2 Ruch, R.J.; Cheng, C.; Klaunig, J.E. Prevention of cytotoxicity and inhibition of intercellular communication by antioxidant catechins isolated from Chinese green tea.
S3 Wolfe, A.; Shimer, G.; Meehan, T. Polycyclic Aromatic Hydrocarbons Physically Intercalate into Duplex Regions of Denatured DNA. Biochemistry 1987, 26, 6392–6396.
S4 Lakowicz, J.R. Principles of Fluorescence Spectroscopy , 3rd ed.; Plenum Press: New […]
S5 Heller, D.P.; Greenstock, C.L. Fluorescence lifetime analysis of DNA intercalated ethid ium bromide and quench ing by free dye. Biophys. Chem.1994,50, 305–312.
S6 Stella, L.; Capodilupo, A.L.; Bietti, M. A reassessment of the association between […]
azulene and [60]fullerene. […]

T1 sequence (P02768 25-609): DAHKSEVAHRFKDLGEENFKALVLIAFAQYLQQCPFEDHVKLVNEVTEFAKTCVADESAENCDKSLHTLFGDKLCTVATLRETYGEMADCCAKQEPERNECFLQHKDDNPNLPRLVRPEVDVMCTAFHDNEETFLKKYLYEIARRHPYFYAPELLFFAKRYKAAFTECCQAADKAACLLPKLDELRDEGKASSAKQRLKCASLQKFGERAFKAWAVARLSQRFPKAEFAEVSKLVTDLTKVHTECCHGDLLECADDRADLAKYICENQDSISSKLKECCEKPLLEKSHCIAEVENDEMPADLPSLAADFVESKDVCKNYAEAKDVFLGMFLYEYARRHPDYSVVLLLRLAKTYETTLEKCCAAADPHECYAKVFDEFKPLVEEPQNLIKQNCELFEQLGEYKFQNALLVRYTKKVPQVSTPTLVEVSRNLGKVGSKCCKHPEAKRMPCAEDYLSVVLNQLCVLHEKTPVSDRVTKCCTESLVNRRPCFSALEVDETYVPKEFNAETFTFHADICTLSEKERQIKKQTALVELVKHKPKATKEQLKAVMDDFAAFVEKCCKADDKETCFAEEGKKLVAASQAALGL

## CO.Cc1ccc2ccc3ccc(C)nc3c2n1.O=Cc1cc(F)ccc1[O-].[Cl-].[Cu+2] [Complex 3, [Cu(5–F–salo)(neoc)Cl].CH3OH]
[1]
  ABTS%, % ABTS–scavenging activity: 46.03 ± 0.60%
[2]
  ΔΙ/Ιο, quenching of the HSA fluorescence: 68.5%
  % relative HSA fluorescence emission intensity I/Io remaining (% of initial): 31.5%
  HSA-binding constant K: 7.16 (±0.40) × 10^5 M^−1
  HSA-quenching constant kq: 1.25 (±0.05) × 10^13 M^−1 s^−1

## O=Cc1cc(F)ccc1[O-].O=[N+]([O-])[O-].[Cu+2].c1ccc(-c2ccccn2)nc1 [Complex 5, [Cu(5–F–salo)(bipy)(NO3)]]
[1]
  ABTS%, % ABTS–scavenging activity: 7.36 ± 0.08%
[2]
  ΔΙ/Ιο, quenching of the HSA fluorescence: 63.0%
  HSA-binding constant K: 1.31 (±0.05) × 10^6 M^−1
  HSA-quenching constant kq: 3.01 (±0.10) × 10^12 M^−1 s^−1

## O=Cc1cc(F)ccc1[O-].[Cl-].[Cu+2].c1ccc(Nc2ccccn2)nc1 [Complex 2, [Cu(5–F–salo)(bipyam)Cl]]
[1]
  ABTS%, % ABTS–scavenging activity: 48.89 ± 0.38%
[2]
  ΔΙ/Ιο, quenching of the HSA fluorescence: 62.7%
  % relative HSA fluorescence emission intensity I/Io remaining (% of initial): 37.3%
  HSA-binding constant K: 5.09 (±0.29) × 10^5 M^−1
  HSA-quenching constant kq: 6.27 (±0.21) × 10^12 M^−1 s^−1

## O=Cc1cc(F)ccc1[O-].O=Cc1cc(F)ccc1[O-].[Cu+2] [Complex 1, [Cu(5–F–salo)2]]
[1]
  ABTS%, % ABTS–scavenging activity: 78.89 ± 0.18%
[2]
  ΔΙ/Ιο, quenching of the HSA fluorescence: 61.3%
  % relative HSA fluorescence emission intensity I/Io remaining (% of initial): 38.7%
  HSA-binding constant K: 1.58 (±0.09) × 10^5 M^−1
  HSA-quenching constant kq: 4.37 (±0.18) × 10^12 M^−1 s^−1

## O=Cc1cc(F)ccc1[O-].O=[N+]([O-])[O-].[Cu+2].c1cnc2c(c1)ccc1cccnc12 [Complex 4, [Cu(5–F–salo)(phen)(NO3)]]
[1]
  ABTS%, % ABTS–scavenging activity: 48.14 ± 0.35%
[2]
  ΔΙ/Ιο, quenching of the HSA fluorescence: 74.6%
  % relative HSA fluorescence emission intensity I/Io remaining (% of initial): 25.5%
  HSA-binding constant K: 1.70 (±0.09) × 10^6 M^−1
  HSA-quenching constant kq: 8.63 (±0.33) × 10^12 M^−1 s^−1
